Strand notation (5' to 3'): a small letter for the sugar, then the base; units joined by * are phosphorothioate-linked, units joined directly phosphodiester-linked; [ ] holds rarer units or linkages, { } end groups; capitals alone tell only the bases. k = constrained ethyl (cEt); [5mC] = 5-methylcytosine; d = 2'-deoxy (DNA)
Test system: Yap1 mRNA
Assay: Antisense inhibition of human Yap1 in A-431 cells by cEt gapmers, single dose (Example 4, RTS4814)
Type: cell-based
Summary of the method: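 A-431 cells took up 3-10-3 cEt gapmers (16-mer, full phosphorothioate, 5-methylcytosines) by free uptake at 2,000 nM for about 48 h. Yap1 mRNA was quantified by qRT-PCR, normalized to total RNA (RIBOGREEN), and reported as % of untreated control.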

[1] = Table 14, A-431 cells, 5,000 cells per well, free uptake, 2,000 nM, approximately 48 hours, RTS4814, normalized to RIBOGREEN, Yap1 mRNA relative to untreated control, * = targets amplicon region of primer probe set
[2] = Table 16, A-431 cells, 5,000 cells per well, free uptake, 2,000 nM, approximately 48 hours, RTS4814, normalized to RIBOGREEN, Yap1 mRNA relative to untreated control cells
[3] = Yap1 mRNA remaining as percent of untreated control, 3-10-3 cEt gapmers, A-431 cells, Table 37
[4] = Table 17, A-431 cells, 5,000 cells per well, free uptake, 2,000 nM, approximately 48 hours, RTS4814, normalized to RIBOGREEN, Yap1 mRNA relative to untreated control cells
[5] = Table 15, A-431 cells, 5,000 cells per well, free uptake, 2,000 nM, approximately 48 hours, RTS4814, normalized to RIBOGREEN, Yap1 mRNA relative to untreated control, * = targets amplicon region of primer probe set

## 1075552 (kG*kA*kT*dT*dA*dT*dA*dA*d[5mC]*dA*dT*dG*d[5mC]*kT*kG*kT; antisense) [Compound 1075552]
[1]
  YAP1 (% UTC): 74 % UTC

## 1074880 (k[5mC]*kT*k[5mC]*d[5mC]*dT*dG*d[5mC]*d[5mC]*dG*dA*dA*dG*d[5mC]*kA*kG*kT; antisense) [compound 1074880]
Table after Table 37, headed TABLE 32 (gapmers targeting SEQ ID NO.: 3), A-431 cells, free uptake, 2,000 nM, approximately 48 hours, RTS4814
  YAP1 (% UTC): 101 % UTC

## 1075842 (kG*kT*kA*dT*dT*dT*dA*dG*dG*dT*dA*d[5mC]*dT*k[5mC]*kA*kG; antisense) [Compound 1075842]
[2]
  YAP1 (% UTC): 2 % UTC

## 1075607 (antisense kA*kA*kA*dA*d[5mC]*dG*dG*dT*dG*dT*dG*dA*dA*kG*kA*kA) [compound 1075607]
[3]
  YAP1 (% UTC): 45 % UTC

## 1074914 (antisense kT*kT*kA*d[5mC]*dA*dT*d[5mC]*d[5mC]*d[5mC]*dG*dA*dG*dT*kG*kG*kG) [Compound 1074914]
[2]
  YAP1 (% UTC): 97 % UTC

## 1075095 (k[5mC]*kT*kT*dG*dA*dA*dA*dA*d[5mC]*dA*dA*dG*d[5mC]*k[5mC]*kA*k[5mC]; antisense) [compound 1075095]
[3]
  YAP1 (% UTC): 63 % UTC

## 1075427 (antisense kT*kA*kT*dA*dA*dG*dG*d[5mC]*dA*dT*d[5mC]*dT*dT*kG*kG*kA) [Compound 1075427]
[4]
  YAP1 (% UTC): 60 % UTC

## 1075777 (kT*kA*kT*dG*dT*dG*dA*dT*dA*dT*dG*dG*dA*kT*kT*k[5mC]; antisense) [Compound 1075777]
[5]
  YAP1 (% UTC): 12 % UTC

## 1074339 (antisense kA*k[5mC]*kT*dG*dG*dA*dT*dT*dT*dT*dG*dA*dG*kT*k[5mC]*k[5mC]) [Compound 1074339]
[4]
  YAP1 (% UTC): 31 % UTC

## 1074945 (antisense k[5mC]*kA*kA*dA*dA*d[5mC]*d[5mC]*d[5mC]*dT*dT*dT*dG*dG*kT*k[5mC]*kT) [Compound 1074945]
[5]
  YAP1 (% UTC): 74 % UTC

## 1075351 (antisense kA*kG*kA*dT*dT*dA*dA*dA*dG*d[5mC]*dT*d[5mC]*dA*kT*kT*kG) [compound 1075351]
[3]
  YAP1 (% UTC): 38 % UTC

## 1074947 (antisense kT*k[5mC]*k[5mC]*dA*dA*dA*dA*d[5mC]*d[5mC]*d[5mC]*dT*dT*dT*kG*kG*kT) [Compound 1074947]
[4]
  YAP1 (% UTC): 99 % UTC

## 1074850 (antisense kT*kT*kG*dT*dT*dA*dT*dG*dA*dT*dA*dG*dG*k[5mC]*kA*k[5mC]) [Compound 1074850]
[2]
  YAP1 (% UTC): 5 % UTC

## 1075105 (antisense kA*kA*kT*dT*dA*dT*dA*dA*dG*dG*dT*d[5mC]*d[5mC]*kT*kA*k[5mC]) [Compound 1075105]
[5]
  YAP1 (% UTC): 42 % UTC

## 1075415 (antisense k[5mC]*kA*kT*dT*dA*dA*dA*dT*dG*dA*d[5mC]*dA*dG*k[5mC]*k[5mC]*kT) [compound 1075415]
[3]
  YAP1 (% UTC): 52 % UTC

## 1076354 (kG*kA*kT*dT*dA*dA*dA*d[5mC]*dA*dT*dT*d[5mC]*dG*kG*kA*kT; antisense) [Compound 1076354]
[2]
  YAP1 (% UTC): 13 % UTC

## 1074307 (antisense kG*kT*kG*dG*d[5mC]*d[5mC]*dT*d[5mC]*dA*d[5mC]*d[5mC]*dT*dG*k[5mC]*k[5mC]*kG) [Compound 1074307]
[4]
  YAP1 (% UTC): 105 % UTC

## 1075638 (antisense kA*kT*kT*dA*dA*d[5mC]*d[5mC]*dA*dG*dA*dA*dG*d[5mC]*k[5mC]*kT*kG) [compound 1075638]
Yap1 mRNA remaining as percent of untreated control, 3-10-3 cEt gapmers, A-431 cells, Table 36
  YAP1 (% UTC): 79 % UTC

## 1075072 (antisense kT*k[5mC]*k[5mC]*dG*dG*dG*dT*dA*dA*dA*dT*dA*dT*k[5mC]*kT*k[5mC]) [Compound 1075072]
[1]
  YAP1 (% UTC): 37 % UTC

## 1075905 (k[5mC]*k[5mC]*kT*dG*dA*dA*d[5mC]*dA*d[5mC]*dA*dG*dG*dA*kG*kT*kA; antisense) [Compound 1075905]
[5]
  YAP1 (% UTC): 43 % UTC
